# Assay results published in patent US12378248B2 (The United States of America, as represented by the …, priority 2018, dated 2025).
# Substitutions are numbered along the chain they refer to.
# Key:
# [1] = test system: off-target receptors (PDSP); test: Off-target interactions determined by the PDSP, whole screen; assay type: binding, human; conditions: no off-target interaction listed
# hA1AR = biological target: T1, hA1AR (Homo sapiens, UniProt P30542); test: Radioligand binding in membranes of CHO cells expressing hA1AR, [3H]N6-R-phenylisopropyladenosine; conditions: read-out: A1AR % inhibition or Ki; for Ki: (h)
# T1 construct: expressed in transfected cells; host or cells: CHO
# T1 sequence (P30542 1-326): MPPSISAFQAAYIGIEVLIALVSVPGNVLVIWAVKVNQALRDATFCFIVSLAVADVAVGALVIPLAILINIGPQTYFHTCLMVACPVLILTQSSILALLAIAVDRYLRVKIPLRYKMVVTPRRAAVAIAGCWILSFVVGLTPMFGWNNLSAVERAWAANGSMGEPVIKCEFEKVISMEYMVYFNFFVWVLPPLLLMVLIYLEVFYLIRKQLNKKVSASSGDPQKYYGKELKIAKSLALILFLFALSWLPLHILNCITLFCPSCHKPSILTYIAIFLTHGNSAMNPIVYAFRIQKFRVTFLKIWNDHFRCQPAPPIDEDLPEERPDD
# hA3AR = biological target: T2, hA3AR (Homo sapiens, UniProt P0DMS8); test: Radioligand binding in membranes of CHO cells expressing hA3AR; conditions: read-out: A3AR % inhibition or Ki; for Ki: (h)
# T2 construct: expressed in transfected cells; host or cells: CHO
# T2 sequence (P0DMS8 1-318): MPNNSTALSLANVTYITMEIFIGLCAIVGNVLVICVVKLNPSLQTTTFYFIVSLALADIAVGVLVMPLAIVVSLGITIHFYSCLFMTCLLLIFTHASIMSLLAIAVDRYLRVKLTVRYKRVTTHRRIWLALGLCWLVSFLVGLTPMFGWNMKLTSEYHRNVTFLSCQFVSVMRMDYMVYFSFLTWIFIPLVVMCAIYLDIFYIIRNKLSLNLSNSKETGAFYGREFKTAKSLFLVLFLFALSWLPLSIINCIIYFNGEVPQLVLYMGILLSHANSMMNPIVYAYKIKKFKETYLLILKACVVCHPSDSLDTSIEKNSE
# hA2AAR = biological target: T3, hA2AAR (Homo sapiens, UniProt P29274); test: Radioligand binding in membranes of HEK293 cells expressing hA2AAR; conditions: read-out: A2AAR % inhibition; for Ki: (h), values without % sign (Ki)
# T3 construct: expressed in transfected cells; host or cells: HEK293
# T3 sequence (P29274 whole entry): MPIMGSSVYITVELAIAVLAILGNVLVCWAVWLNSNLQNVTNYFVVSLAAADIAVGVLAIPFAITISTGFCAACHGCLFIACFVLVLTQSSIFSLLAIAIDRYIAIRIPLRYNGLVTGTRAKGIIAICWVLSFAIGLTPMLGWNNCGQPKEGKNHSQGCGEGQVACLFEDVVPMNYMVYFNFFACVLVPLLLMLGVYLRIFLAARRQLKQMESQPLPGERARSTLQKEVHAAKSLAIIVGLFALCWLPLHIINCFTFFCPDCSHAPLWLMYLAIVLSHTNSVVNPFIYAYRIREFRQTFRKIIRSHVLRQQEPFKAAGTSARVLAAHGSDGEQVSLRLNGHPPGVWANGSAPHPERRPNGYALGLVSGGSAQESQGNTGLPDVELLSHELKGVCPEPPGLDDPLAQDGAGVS
# rA1AR = biological target: T4, rA1AR (Rattus norvegicus, UniProt P25099); test: Adenosine receptor binding, rA1AR; conditions: (r), read-out: A1AR % inhibition or Ki (converted)
# T4 sequence (P25099 1-326): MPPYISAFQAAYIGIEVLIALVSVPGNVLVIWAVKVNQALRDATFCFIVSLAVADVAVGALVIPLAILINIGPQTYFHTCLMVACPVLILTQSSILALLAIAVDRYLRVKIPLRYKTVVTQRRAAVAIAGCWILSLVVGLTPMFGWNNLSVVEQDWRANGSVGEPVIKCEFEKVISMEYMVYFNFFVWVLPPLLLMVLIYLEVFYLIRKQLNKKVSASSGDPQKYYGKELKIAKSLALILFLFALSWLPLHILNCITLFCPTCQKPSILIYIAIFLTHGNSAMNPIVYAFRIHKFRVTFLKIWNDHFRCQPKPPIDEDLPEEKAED
# sigma receptor σ2 = sigma receptor σ2 (UniProt Q5BJF2); test: Off-target interaction determined by the PDSP; assay type: binding, human; conditions: read-out: Off-target, receptor (h, unless noted) (Ki, μM): σ2
# mA3AR [2] = biological target: T5, mA3AR (Mus musculus, UniProt Q61618); test: Adenosine receptor binding, mA3AR; conditions: for Ki: (m), read-out: A3AR % inhibition or Ki (converted)
# T5 sequence (Q61618 1-319): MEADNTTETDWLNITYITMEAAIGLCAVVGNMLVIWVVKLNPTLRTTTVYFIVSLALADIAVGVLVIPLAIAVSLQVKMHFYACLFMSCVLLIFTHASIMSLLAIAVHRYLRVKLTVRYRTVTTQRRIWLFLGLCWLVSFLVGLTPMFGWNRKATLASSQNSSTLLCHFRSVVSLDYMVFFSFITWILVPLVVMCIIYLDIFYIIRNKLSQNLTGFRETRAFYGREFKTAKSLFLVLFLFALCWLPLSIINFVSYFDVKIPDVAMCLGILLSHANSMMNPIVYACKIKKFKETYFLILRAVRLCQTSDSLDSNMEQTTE
# mA2AAR = mA2AAR (Mus musculus, UniProt Q60613); test: Adenosine receptor binding, mA2AAR; conditions: read-out: A2AAR % inhibition (converted)
# Sequence of mA2AAR (Q60613 whole entry): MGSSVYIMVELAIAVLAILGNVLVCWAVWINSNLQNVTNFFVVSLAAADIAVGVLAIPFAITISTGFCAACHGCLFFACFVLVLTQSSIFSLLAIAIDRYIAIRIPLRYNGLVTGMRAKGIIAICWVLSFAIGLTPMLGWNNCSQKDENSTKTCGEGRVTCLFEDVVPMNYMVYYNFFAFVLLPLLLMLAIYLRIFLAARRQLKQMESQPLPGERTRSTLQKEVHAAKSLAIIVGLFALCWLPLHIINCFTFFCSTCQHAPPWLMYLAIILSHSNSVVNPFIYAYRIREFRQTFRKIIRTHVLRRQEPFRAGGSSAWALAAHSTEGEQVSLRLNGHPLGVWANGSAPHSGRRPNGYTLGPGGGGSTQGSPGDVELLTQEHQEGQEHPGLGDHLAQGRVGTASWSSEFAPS
# serotonin receptor 5HT2B = serotonin receptor 5HT2B (Homo sapiens, UniProt P41595); test: Off-target interaction determined by the PDSP; assay type: binding; conditions: read-out: Off-target, receptor (h, unless noted) (Ki, μM): 5HT2B
# Sequence of serotonin receptor 5HT2B (P41595 whole entry): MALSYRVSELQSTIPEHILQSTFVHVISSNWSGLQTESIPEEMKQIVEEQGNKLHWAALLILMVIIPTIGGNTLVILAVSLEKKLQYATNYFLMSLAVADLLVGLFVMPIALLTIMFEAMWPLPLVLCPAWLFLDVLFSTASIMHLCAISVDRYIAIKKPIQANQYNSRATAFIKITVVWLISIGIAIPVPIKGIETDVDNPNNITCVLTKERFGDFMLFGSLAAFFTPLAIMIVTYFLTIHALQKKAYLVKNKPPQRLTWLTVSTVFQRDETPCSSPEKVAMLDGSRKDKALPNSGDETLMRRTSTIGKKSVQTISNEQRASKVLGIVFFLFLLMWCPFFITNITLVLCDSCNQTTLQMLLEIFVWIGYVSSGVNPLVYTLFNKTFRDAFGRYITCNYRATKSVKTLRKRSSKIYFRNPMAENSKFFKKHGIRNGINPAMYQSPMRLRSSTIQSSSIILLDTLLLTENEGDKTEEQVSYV
# serotonin receptor 5HT2C = biological target: T6, serotonin receptor 5HT2C (Homo sapiens, UniProt P28335); test: Off-target interaction determined by the PDSP; assay type: binding; conditions: read-out: Off-target, receptor (h, unless noted) (Ki, μM): 5HT2C
# T6 sequence (P28335 33-458): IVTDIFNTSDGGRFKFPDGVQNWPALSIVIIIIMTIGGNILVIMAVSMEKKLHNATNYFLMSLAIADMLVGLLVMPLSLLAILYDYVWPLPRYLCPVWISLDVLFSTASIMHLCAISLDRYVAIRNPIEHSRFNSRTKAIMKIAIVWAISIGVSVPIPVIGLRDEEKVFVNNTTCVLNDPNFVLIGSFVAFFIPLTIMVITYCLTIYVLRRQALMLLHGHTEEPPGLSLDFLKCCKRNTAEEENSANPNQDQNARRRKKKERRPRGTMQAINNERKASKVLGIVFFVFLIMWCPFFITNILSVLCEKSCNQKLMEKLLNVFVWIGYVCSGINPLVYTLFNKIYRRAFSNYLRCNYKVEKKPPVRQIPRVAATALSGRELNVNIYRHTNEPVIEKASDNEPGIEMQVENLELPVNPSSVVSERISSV
# mA1AR = biological target: T7, mA1AR (Mus musculus, UniProt Q60612); test: Adenosine receptor binding, mA1AR; conditions: for Ki: (m), read-out: A1AR % inhibition or Ki (converted)
# T7 sequence (Q60612 1-326): T4 sequence (P25099 1-326) with V151E, D155A, R157I, D316E, L319I, E325D
# wild-type C57BL/6J mice [3] = test: Locomotor activity by telemetry after ip dosing; assay type: in vivo, mouse; conditions: average from dosing to 60 min, mean±SD
# Method: (§1) Compounds were dosed ip. Tb and activity were measured by telemetry and the averages from dosing to 60 min were calculated. […] Data are for the highest dose used and are mean±SD from 3 to 22 mice/group (usually 5-7). P values are unpaired t-Test vs vehicle-treated controls assayed simultaneously. Vehicle data are mean±SD from all (n=83) vehicle treated mice.
# wild-type C57BL/6J mice [4] = test: Hypothermia (Tb by telemetry) after ip dosing; assay type: in vivo, mouse; conditions: for Tb (° C.): average from dosing to 60 min, mean±SD
# Method: as §1
# [5] = Plasma protein binding at 10 μM; assay type: in vitro ADME, mouse; conditions: unbound percent ± standard deviation
# Method: (§2) Plasma protein binding in human plasma, mouse plasma, and rat plasma was determined. Verapamil and warfarin served as positive controls. The results are expressed as unbound percent±standard deviation.
# mA3AR [6] = biological target: T5, mA3AR; test: Guanine nucleotide ([35S]GTPγS) binding assay; assay type: biochemical; conditions: effect of 10 μM test compound as % of 10 μM 16
# Method: cLogP was calculated using ChemDraw Professional, v. 16.0. Binding selectivity for mA1Ar is expressed in terms of fold, compared to mA3AR (Data from Table 1).
# [7] = Plasma protein binding at 10 μM; assay type: in vitro ADME, human; conditions: unbound percent ± standard deviation
# Method: as §2
# [8] = Plasma protein binding at 10 μM; assay type: in vitro ADME, rat; conditions: unbound percent ± standard deviation
# Method: as §2
# [9] = biological target: dopamine transporter (DAT) (Homo sapiens, UniProt Q01959); test: Off-target interaction determined by the PDSP; assay type: binding; conditions: read-out: Off-target, receptor (h, unless noted) (Ki, μM): DAT
# Sequence of dopamine transporter (DAT) (Q01959 whole entry): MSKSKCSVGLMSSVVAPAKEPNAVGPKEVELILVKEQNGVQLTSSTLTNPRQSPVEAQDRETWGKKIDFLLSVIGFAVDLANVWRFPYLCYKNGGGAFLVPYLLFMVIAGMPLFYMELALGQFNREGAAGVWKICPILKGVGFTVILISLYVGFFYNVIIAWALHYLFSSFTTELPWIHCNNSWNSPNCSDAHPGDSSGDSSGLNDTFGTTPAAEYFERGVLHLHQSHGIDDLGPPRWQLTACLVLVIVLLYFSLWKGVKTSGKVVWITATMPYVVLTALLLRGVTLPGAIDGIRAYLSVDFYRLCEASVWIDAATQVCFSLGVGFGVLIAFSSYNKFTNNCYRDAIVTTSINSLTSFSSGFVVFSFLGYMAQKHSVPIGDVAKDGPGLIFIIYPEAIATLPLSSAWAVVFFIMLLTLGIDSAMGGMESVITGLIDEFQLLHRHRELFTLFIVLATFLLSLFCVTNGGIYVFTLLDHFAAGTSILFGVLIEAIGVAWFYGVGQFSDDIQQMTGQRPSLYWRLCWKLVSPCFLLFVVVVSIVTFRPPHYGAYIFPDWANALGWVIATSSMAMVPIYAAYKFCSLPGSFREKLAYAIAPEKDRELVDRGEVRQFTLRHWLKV
smiles,measurement,setting,value
"OC[C@@]12C[C@@H]1[C@@H](n1cnc3c(N[C@H]4C[C@H]5CC[C@@H]4C5)nc(Cl)cc31)[C@H](O)[C@@H]2O [Compound 30, (1R,2R,3S,4R,5S)-4-(4-(((1R,2S,4S)-Bicyclo[2.2.1]heptan-2-yl)amino)-6-chloro-1H-imidazo[4,5-c]pyridin-1-yl)-1-(hydroxymethyl)bicyclo[3.1.0]hexane-2,3-diol]","Off-target, receptor (h, unless noted)",[1],none
same,Ki,hA1AR,240 ± 19 nM
same,Ki,hA3AR,145 ± 74 nM
same,inhibition at 10 µM,hA2AAR,29 ± 13%
Nc1nc(Cl)nc2c1ncn2[C@H]1[C@H](O)[C@H](O)[C@]2(CO)C[C@H]12 [Compound 21],"Off-target, receptor (h, unless noted)",[1],none
same,Ki,rA1AR,273 nM
"O[C@H]1[C@H](n2cnc3c(NC(C4CCC4)C4CCC4)nc(Cl)nc32)[C@H]2C[C@@]2(CSc2ccccc2F)[C@H]1O [Compound 28, (1S,2R,3S,4R,5S)-4-(2-Chloro-6-((dicyclobutylmethyl)amino)-9H-purin-9-yl)-1-(((2-fluorophenyl)thio)methyl)bicyclo[3.1.0]hexane-2,3-diol]",inhibition at 10 µM,hA1AR,45 ± 4%
same,Ki,hA3AR,9750 ± 4030 nM
same,Ki,sigma receptor σ2,0.583 µM
same,Ki,mA3AR [2],7440 nM
same,inhibition at 10 µM,mA2AAR,20%
same,inhibition at 10 µM,hA2AAR,22 ± 5%
same,Ki,serotonin receptor 5HT2B,0.334 µM
same,Ki,serotonin receptor 5HT2C,1.46 µM
same,Ki,mA1AR,2490 nM
"CNC(=O)[C@H]1O[C@@H](n2cnc3c(N)ncnc32)[C@H](O)[C@@H]1O [Compound 15, reference compound]","Off-target, receptor (h, unless noted)",[1],none
same,Ki,hA1AR,36.7 nM
same,Ki,rA1AR,84 nM
same,Ki,hA3AR,24.4 nM
same,Ki,hA2AAR,466 ± 95 nM
"O=C(NC1CC1)[C@@]12C[C@@H]1[C@@H](n1cnc3c(N[C@H]4C[C@H]5CC[C@@H]4C5)nc(Cl)nc31)[C@H](O)[C@@H]2O [Compound 36, (1S,2R,3S,4R,5S)-4-(6-(((1R,2S,4S)-bicyclo[2.2.1]heptan-2-yl)amino)-2-chloro-9H-purin-9-yl)-N-cyclopropyl-2,3-dihydroxybicyclo[3.1.0]hexane-1-carboxamide]",Ki,hA1AR,1.22 ± 0.05 nM
same,Ki,hA3AR,59 ± 17.8 nM
same,Ki,mA3AR [2],29.5 nM
same,Ki,"mA2AAR; (m), values without % sign (Ki)",2650 nM
same,Ki,hA2AAR,520 ± 119 nM
same,Ki,serotonin receptor 5HT2B,1.57 µM
same,Ki,mA1AR,0.45 nM
"OC[C@H]1O[C@@H](n2cnc3c(NC(C4CCC4)C4CCC4)ncnc32)[C@H](O)C1O (stereo in doubt) [Compound 9, (2R,3R,4R,5R)-2-(6-((Dicyclobutylmethyl)amino)-9H-purin-9-yl)-5-(hydroxymethyl)tetrahydrofuran-3,4-diol]",Activity (counts),wild-type C57BL/6J mice [3]; 3 mg/kg ip,6.6 ± 2.3 counts
same,ARs causing hypothermia,"wild-type C57BL/6J mice [4]; 3 mg/kg ip, WT and AR-KO mice (FIG. 2)",A1AR selective
same,Tb (° C.),wild-type C57BL/6J mice [4]; 3 mg/kg ip,33.0 ± 0.7 °C
same,"mouse, % free",[5],20.6 ± 1.2%
same,Ki,hA3AR,10600 nM
same,Emax at 10 µM,mA3AR [6],70 ± 9%
same,"human, % free",[7],6.05 ± 1.60%
same,"rat, % free",[8],14.6 ± 0.01%
"CCNC(=O)[C@H]1O[C@@H](n2cnc3c(N)ncnc32)[C@H](O)[C@@H]1O [Compound 16, reference compound]","Off-target, receptor (h, unless noted)",[1],none
"NC(=O)c1ncn([C@H]2[C@H](O)[C@H](O)[C@]3(CO)C[C@H]23)n1 [Compound 40, 1-((1S,2R,3S,4R,5R)-3,4-Dihydroxy-5-(hydroxymethyl)bicyclo[3.1.0]hexan-2-yl)-1H-1,2,4-triazole-3-carboxamide]",Activity (counts),wild-type C57BL/6J mice [3]; 10 mg/kg ip,19.1 ± 5.3 counts
same,Ki,hA1AR,495 ± 35 nM
same,Tb (° C.),wild-type C57BL/6J mice [4]; 10 mg/kg ip,35.7 ± 0.7 °C
same,"mouse, % free",[5],> 80%
same,inhibition at 10 µM,hA3AR,41 ± 6%
same,Ki,sigma receptor σ2,2.09 µM
same,inhibition at 10 µM,mA3AR [2]; read-out: A3AR % inhibition or Ki,47 ± 2%
same,Ki,[9],6.61 µM
same,Emax at 10 µM,mA3AR [6],31 ± 3%
same,inhibition at 10 µM,hA2AAR,11 ± 3%
same,Ki,serotonin receptor 5HT2B,1.91 µM
same,Ki,serotonin receptor 5HT2C,2.35 µM
same,"human, % free",[7],> 80%
same,"rat, % free",[8],> 80%
same,selectivity ratio,mA1AR,400
same,Ki,mA1AR,25.2 ± 2.8 nM
